Experimental data reported in patent US20220400669A1, “COMPOUNDS AND METHODS FOR PROMOTING PLANT GROWTH” (King Abdullah University of Science and Technology, priority 2019, published 2022).
Entries after “also recorded” stand apart in the source; their conditions may differ. Blank lines part the entries; values can stand above or below the molecule they belong to.

Assays:
Type in all cases: in vivo
[1] = tested on: strigolactones (4-deoxyorobanchol, orobanchol) release; assay: LC-MS/MS quantification of SLs in rice root exudates; settings: 5 μM; for SL level of the root exudate: wild-type rice seedlings, Pi-starvation, 6 h, compared with Zaxinone (FIGS. 19, 20A-20B); for SL level / release in root exudates (4-DO, Oro): Pi starvation, in comparison with MZ1 and mock control (FIGS. 21A-21C)
Experimental: For SL analysis, one-week-old seedlings were transferred into 50 ml falcon tubes (two seedlings per tube), containing half-strength Hoagland nutrient solution with K2HPO4.2H2O (+Pi), and grown in the biochamber for one week. Rice seedlings were then subjected to phosphate deficiency (−Pi) for another one week. On the day of root exudates collection, rice seedlings were first treated with 5 μM Zaxinone, or MZ compounds for 6 h, and then root exudates and root tissues were collected from each tube for LC-MS/MS analysis and Striga bioassays.
For the quantification of SLs in rice root exudates, 50 ml of root exudates spiked with 0.672 ng of D6-5-deoxystrigol, was brought on a 500 mg/3 ml fast SPE C18 column preconditioned with 6 ml of methanol and 3 ml of water. After washing with 3 ml of water, SLs were eluted with 5 ml of acetone. The 4-deoxyorobanchol fraction (acetone-water solution) was concentrated to SL aqueous solution (˜500 μl), followed by the extraction with 1 ml of ethyl acetate. 750 μl of SLs enriched organic phase was then transferred to 1.5 ml tube and evaporated to dryness under vacuum. The dried extract was dissolved in 100 μl of acetonitrile:water (25:75, v:v) and filtered through a 0.22 µm filter for LC-MS/MS analysis.

wild-type rice plants = assay: Rice phenotypes in soil (rhizotron system); settings: 5 μM
Experimental: For testing MZ3 and MZ5 on rice phenotypes in the rhizotron system (48 cm×24 cm×5 cm), three-day-old seedlings were grown in soil with half-strength modified Hoagland nutrient solution containing 0.4 mM K2HPO4.2H2O (+Pi) and 5 μM zaxinone for two weeks. The solution was changed every other day, adding the chemical at each renewal. To increase the compounds stability, 1 μl/ml emulsifier (cyclohexanone+Atlas […] kindly provided by a person […] of CRODA, Gouda; The Netherlands) was added into Hoagland nutrient solution. Root surface area was analyzed with the ImageJ software.

Striga hermonthica seeds = assay: Striga hermonthica seed germination bioassay with root exudates of treated rice seedlings; settings: for decrease of Striga seed germination rate: exudates of rice seedlings treated with 5 μM compound, Pi starvation (FIG. 2)
Experimental: For SL analysis, one-week-old seedlings were transferred into 50 ml falcon tubes (two seedlings per tube), containing half-strength Hoagland nutrient solution with K2HPO4.2H2O (+Pi), and grown in the biochamber for one week. Rice seedlings were then subjected to phosphate deficiency (−Pi) for another one week. On the day of root exudates collection, rice seedlings were first treated with 5 μM Zaxinone, or MZ compounds for 6 h, and then root exudates and root tissues were collected from each tube for LC-MS/MS analysis and Striga bioassays. Striga hermonthica seed germination bioassays were conducted by following the procedure as described previously. About 50-100 sterilized Striga seeds were spread on a glass fiber filter paper disc. Then 12 discs with Striga seeds were put on a sterilized filter paper, moistened with 3 ml sterilized water in a 90 mm petri plate. The plates were sealed with parafilm and cover with aluminum foil. All the plates were kept at 30° C. for 10 days for pre-conditioning. On 11th day, six dry discs with pre-conditioned seeds were selected and put in a 90 mm petri-dish. A filter paper ring moistened with 0.9 ml sterile MilliQ water was placed in the plate. The root exudates collected from Zaxinone or MZ compounds treated rice seedlings was applied at 50 μl on each six disc. Sterile MilliQ water and standard SL analog GR24 (2.5 μM) were included as a negative and positive control, respectively. After application, Striga seeds were incubated in dark at 30° C. for 24 hours. Germination (seeds with radicle emerging through seed coat) was scored under a binocular microscope, and germination rate (%) was calculated.

[2] = tested on: Gigaspora margarita spores; assay: Gigaspora margarita spores germination
Experimental: Spores were sterilized in a solution of Streptomycine sulphate (0.03% W/V) and Chloramine T (3% W/V) and germinated in 200 μl of MZ3 and MZ5 at 5 μM or 50 nM, GR24 10 nM or a solution of Water/Acetone (12.5 μl acetone in 25 ml water). For each treatments 96 sterilized spores were placed individually in the wells of a multi-well plate and treated with freshly prepared solutions at the beginning of the experiment and after 3 days. Spores were germinated in the dark at 30° C. and the germination rate was evaluated after 3 days and 7 days.

[3] = tested on: SL biosynthesis genes D27, CCD7, CCD8, CO; assay: qRT-PCR transcript analysis of SL biosynthesis genes in rice roots; settings: 5 μM; for transcript levels of SL biosynthesis enzymes D27, CCD7, CCD8 and CO: wild-type rice seedlings, Pi-starvation, 6 h
Experimental: For transcript analysis, one-week-old seedlings were grown hydroponically in half-strength modified Hoagland nutrient solution with K2HPO4.2H2O (+Pi) and without K2HPO4.2H2O (+Pi) (−Pi) for 7 days. Seedlings were further treated with zaxinone or MZ compounds for 6 h, and tissues were collected.
Roots of rice seedling were ground and homogenized in liquid nitrogen, and total RNA was isolated using a Direct-zol RNA Miniprep Plus Kit following the manufacturer's instructions (ZYMO RESEARCH; USA). cDNA was synthesized from 1 μg of total RNA using iScript cDNA Synthesis Kit (BIO-RAD Laboratories, Inc, 2000 Alfred Nobel Drive, Hercules, Calif.; USA) according to the instructions in the user manual. The gene expression level was detected by real-time quantitative RT-PCR (qRT-PCR) which was performed using SYBR Green Master Mix (Applied Biosystems; www.lifetechnologies.com) in a CFX384 Touch™ Real-Time PCR Detection System (BIO-RAD Laboratories, Inc, 2000 Alfred Nobel Drive, Hercules, Calif.; USA). The gene expression level was calculated by normalization of a housekeeping gene in rice, Ubiquitin (OsUBQ) (Table 1). The relative gene expression level was calculated according to 2-^ΔΔCT method.

[4] = LC-MS analysis of rice plants fed with the mimics; settings: data not shown; for conversion into the methoxy mimic (MZ3 or MZ5) in rice plants: rice plants fed with the mimic
Striga hermonthica = Striga hermonthica infection of rice in pots; settings: 5 μM, rice cv IAC-165 in pots with Striga infested soil (FIG. 13)
Experimental: Pots experiment was conducted and slightly adapted from the protocol as described previously About 20 mg (ca 8000) Striga seeds were thoroughly mixed in 1.5 L sand and soil mixture (1:1) and added in 3 L perforated plastic pot containing 0.5 L clean soil in the bottom. The pots were kept in greenhouse-controlled conditions at 35° C. under moisture to preconditioned Striga seeds for 10 days. On 11th day, one week old five rice seedlings (cv IAC165) were planted in each pot. After three days of rice planting, each pot was first irrigated with 250 ml phosphorus deficient Hoaglands nutrient solution and after four hours of irrigation 25 ml formulated MZ3, MZ5 and Zaxinone (100 μM) were sprayed. Next day, each pot was again supplied with 250 ml nutrient solution to make the final concentration of each compound to 5 μM and to move the compound to rice seedlings. Pots with and without Striga seeds were kept as the negative and positive control. Each compound was applied twice in a week up to four weeks. The rice plants were grown under normal growth condition (30° C., 70% RH) for eight weeks. The number of emerged Striga plants in each pot were counted.

[5] = roots and root exudates, Pi-starved WT rice, 6 hours

Structure (SMILES): CC(=O)c1cccc(-c2cccc(-c3cccc(-c4cccc(-c5cccc(-c6ccc(C)cc6)c5)c4)c3)c2)c1 [MZ7]
- SL level of the root exudate [1]: did not show significant activity

- transcript levels of SL biosynthesis enzymes D27, CCD7, CCD8 and CO [3]: pronounced decrease
- presence in shoots of rice plants fed through roots [4]: detected
Structure (SMILES): COc1ccc(-c2cccc(-c3cccc(C(C)=O)c3)c2)cc1 [MZ5]
- effect on 4-deoxyorobanchol relative to Zaxinone [1, 5]: significantly stronger
- effect on SL levels relative to Zaxinone [1, 5]: reduced SL levels more than zaxinone
- SL level of the root exudate [1]: obvious effect
- root surface area and root numbers of WT plants compared with zaxinone treatment (wild-type rice plants): increased more
- decrease of Striga seed germination rate (Striga hermonthica seeds): ~46%
- spore germination rate ([2]; 5 μM and 50 nM, 3 and 7 days): no effect
- CCD7 and CO transcript level compared with Zaxinone ([3]; wild-type rice roots, Pi starvation, 6 h (FIGS. 12A-12D)): significantly lower
- reduction of the number of emerging Striga plants compared to the untreated control (Striga hermonthica): 55%

Structure (SMILES): CC(=O)/C=C/c1cccc(-c2ccc(O)cc2)c1 [MZ1]
- SL level of the root exudate [1]: did not show significant activity

Structure (SMILES): CC1=C[C@H](O/C=C2/C(=O)O[C@@H]3c4ccccc4C[C@H]23)OC1=O [GR24, reference compound]
- spore germination rate ([2]; GR24 10 nM): highest

- transcript levels of SL biosynthesis enzymes D27, CCD7, CCD8 and CO [3]: downregulating; also recorded: reduced
- conversion into the methoxy mimic (MZ3 or MZ5) in rice plants [4]: not detected
Structure (SMILES): CC(=O)/C=C/c1cccc(Oc2ccc(O)cc2)c1 [MZ2, (E)-4-(3-(4-hydroxyphenoxy)phenyl)but-3-en-2-one]
- SL level / release in root exudates (4-DO, Oro) [1]: significant decrease
- SL level of the root exudate [1]: did not affect

Structure (SMILES): CC(=O)c1cccc(-c2cccc(-c3cccc(-c4cccc(-c5ccc(O)cc5)c4)c3)c2)c1 [MZ6]
- SL level of the root exudate [1]: did not show significant activity

- transcript levels of SL biosynthesis enzymes D27, CCD7, CCD8 and CO [3]: downregulating; also recorded: reduced
- conversion into the methoxy mimic (MZ3 or MZ5) in rice plants [4]: not detected
Structure (SMILES): CC(=O)c1cccc(-c2cccc(-c3ccc(O)cc3)c2)c1 [MZ4, 1-(4″-hydroxy-[1,1′:3′,1″-terphenyl]-3-yl)ethan-1-one]
- SL level / release in root exudates (4-DO, Oro) [1]: tendency to reduce
- SL level of the root exudate [1]: did not affect
- effect on Striga seed germination (Striga hermonthica seeds; exudates of rice plants treated at 5 μM, Pi starvation): did not suppress

Structure (SMILES): CC(=O)/C=C/C=C(C)/C=C/C1=C(C)CC(O)CC1(C)C (stereo in doubt) [Zaxinone, reference compound]
- decrease of Striga seed germination rate (Striga hermonthica seeds): around 29%
- spores germination ([2]; Zaxinone, after 3 and 7 days): did not affect
- reduction of the number of emerging Striga plants compared to the untreated control (Striga hermonthica): 42%
